Experimental data: article PMC5846726, “Characterization of the Mel1c melatoninergic receptor in platypus (Ornithorhynchus anatinus)” (PLoS ONE, 2018)

molecular target: T1, Platypus Mel1C (Ornithorhynchus anatinus, UniProt A0A2P1K6N2); experiment: 2-[125I]-iodomelatonin competition binding, membranes from stably transfected CHO cells, platypus Mel1c; details: membranes from stably transfected CHO cells; radioligand 2-[125I]-iodomelatonin; read-out: Platypus Mel1C (converted)
Procedure: (§1) CHO-Flp-In cells (Thermo Fisher Scientific, Waltham, USA) were cultivated in the presence of zeocin (0.1 mg/ml). The cells were cotransfected with either platypus (cloned sequence that will be submitted to GenBank) Mel1c/pcDNA5-FRT (platypus Mel1c) or X. laevis (NM 001087919.1) Mel1c/pcDNA5-FRT (clawed frog Mel1c) and Flp recombinase expression pOG44 plasmid using PEIpro (Invitrogen, Carlsbad, CA). CHO cells stably expressing platypus Mel1c or clawed frog Mel1c were selected using hygromycin (0.6 mg/ml). CHO-Flp-In-platypus Mel1c cells were grown in HAM F12 with 2 mM glutamine and supplemented with 10% fetal calf serum. Cells were selected using antibiotic pressure (hygromycin) for 72 h. […] After confirmation of the presence of the transgene, the cells were amplified up to 2 x 10^9 cells. This material was used to prepare the cell membranes used in further pharmacological experiments.
(§2) This standard procedure was described in a previous experiment with CHO cells expressing the sheep MT2 receptor [23]. […] The resulting pellet was suspended in 5 mM Tris/HCl (pH 7.4) containing 2 mM EDTA and homogenized using a Kinematica polytron. The homogenate was then centrifuged (20,000g, 30 min, 4°C) and the resulting pellet suspended in 75 mM Tris/HCl (pH 7.4) containing 2 mM EDTA and 12.5 mM MgCl2. The protein content was determined according to the method of Lowry et al. using the Bio-Rad kit (Bio-Rad SA, Ivry-sur-Seine, France). Aliquots of membrane preparations were stored in binding buffer (50 mM Tris/HCl, pH 7.4 containing 5 mM MgCl2 and 1 mM EDTA) at –80°C until use.
(§3) This approach has been described very often by our laboratory and others. […] The results were expressed as Ki, taking into account the concentration of radioligand used in each experiment. […] The reaction was stopped by rapid filtration through GF/B Unifilters, followed by three successive washes with ice-cold buffer. Data were analyzed by using the program PRISM (GraphPad Software Inc., San Diego, CA). For saturation assays, the density of binding sites (Bmax) and the dissociation constant of the radioligand (KD) were calculated according to the Scatchard method. […] A similar protocol was used when the binding was performed on whole cells, as described by Legros et al.. As per Plos One policy, all the raw data–listings from radioactivity counter are attached as raw files (Supplementary Tables A to M in S1 Data).

T1 sequence (A0A2P1K6N2 1-349): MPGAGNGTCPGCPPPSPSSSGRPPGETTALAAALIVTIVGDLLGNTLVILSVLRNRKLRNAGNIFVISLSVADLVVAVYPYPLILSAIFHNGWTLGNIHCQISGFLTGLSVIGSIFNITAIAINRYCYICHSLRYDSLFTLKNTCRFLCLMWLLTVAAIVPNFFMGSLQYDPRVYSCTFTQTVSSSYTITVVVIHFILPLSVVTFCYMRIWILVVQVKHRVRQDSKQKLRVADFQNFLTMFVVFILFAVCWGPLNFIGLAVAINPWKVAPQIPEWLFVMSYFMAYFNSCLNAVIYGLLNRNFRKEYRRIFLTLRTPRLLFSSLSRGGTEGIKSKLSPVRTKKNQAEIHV

| Ki [nM] | Compound |
| --- | --- |
| 3.98 | COc1cc2c(CCNC(C)=O)c[nH]c2cc1I [6-Iodomelatonin, N-[2-(6-iodo-5-methoxy-1H-indol-3-yl)ethyl]acetamide] |
| 20 | COCC(CNC(C)=O)c1cccc2ccc(OC)cc12 (stereo not shown) [S73893, N-[3-methoxy-2-(7-methoxy-1-naphthyl)propyl]acetamide] |

| Compound | Ki [nM] |
| --- | --- |
| COc1ccc2[nH]cc(CCNC(=O)CI)c2c1 [SD6, N-[2-(5-methoxy-1H-indol-3-yl)ethyl]iodoacetamide] | 0.398 |

molecular target: T1, Platypus Mel1C; experiment: 2-[125I]-iodomelatonin competition binding, transiently transfected COS7 cells, platypus Mel1c; details: COS7 cells transiently transfected with Mel1c gene; radioligand 2-[125I]-iodomelatonin; two transfections, triplicate
Procedure: (§4) COS7 cells obtained from the American Type Culture Collection were maintained in DMEM GlutaMAX (Thermo Fisher Scientific, Waltham, USA) supplemented with 10% (v/v) fetal calf serum. Nucleofection of COS7 cells was performed according to the manufacturer's instructions using the Nucleofector machine (Amaxa, Cologne, Germany). Adherent COS7 cells were washed in phosphate-buffered saline (PBS), trypsinized, and gently resuspended in V nucleofection solution to a final concentration of 7 × 10^6 cells/100 μl. Next, 5 μg of pCIneo/Mel1c vector was mixed with 100 μl of the COS7 cell suspension, transferred to a […] electroporation cuvette, and nucleofected using program A024 and an Amaxa Nucleofector apparatus. Just after the nucleofection, 500 μl of media supplemented with 20% (v/v) fetal calf serum was added to the cell suspension and cultured in a humidified 37°C, 5% CO2 incubator for 20 minutes. Fourteen million cells were transferred to a T225 flask containing 50 ml of media supplemented with 20% (v/v) fetal calf serum and cultured in a humidified 37°C, 5% CO2 incubator. Two days after transfection, the cells were harvested in PBS, pelleted, and stored at -80°C until use.
as §3
(§5) To obtain stable expression of the receptor for future studies, a preliminary step involving transient expression of the receptor was performed. The Mel1c receptors from the three species were expressed in transiently transfected COS7 cells. A limited number of compounds were tested in order to gain a preliminary perception of the characteristics of Mel1c from these species.

| Compound | pKi Ornithorhyncus anatinus |
| --- | --- |
| COc1ccc2[nH]c(-c3cccc4ccccc34)c(CCNC(=O)CI)c2n1 [S70254] | 6.6 |
| COc1ccc2[nH]c(I)c(CCNC(C)=O)c2c1 [2-Iodomelatonin, 2-iodomelatonin] | 10.2 |

molecular target: T2, hMT2 (Homo sapiens, UniProt P49286); experiment: 2-[125I]-iodomelatonin competition binding, human MT2; details: membranes from stably transfected CHO cells; radioligand 2-[125I]-iodomelatonin
T2 sequence (P49286 1-362): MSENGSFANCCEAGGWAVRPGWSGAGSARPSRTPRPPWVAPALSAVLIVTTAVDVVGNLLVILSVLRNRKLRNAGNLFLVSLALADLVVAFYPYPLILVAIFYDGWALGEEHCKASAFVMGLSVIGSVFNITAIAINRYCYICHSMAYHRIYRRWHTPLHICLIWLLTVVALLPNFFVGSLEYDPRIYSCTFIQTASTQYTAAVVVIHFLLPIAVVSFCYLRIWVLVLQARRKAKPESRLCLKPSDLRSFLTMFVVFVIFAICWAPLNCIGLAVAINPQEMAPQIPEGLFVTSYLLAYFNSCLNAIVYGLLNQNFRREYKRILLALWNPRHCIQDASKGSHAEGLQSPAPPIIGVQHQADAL
Procedure: as §3

| Compound | hMT2 |
| --- | --- |
| COc1ccc2[nH]c(-c3cccc4ccccc34)c(CCNC(=O)CI)c2n1 [S70254] | 9.0 |

same assay, conditions: membranes from stably transfected CHO cells; radioligand 2-[125I]-iodomelatonin; read-out: hMT2 (converted)

| Ki [nM] | Compound |
| --- | --- |
| 2.51 | COc1cc2c(CCNC(C)=O)c[nH]c2cc1I [6-Iodomelatonin, N-[2-(6-iodo-5-methoxy-1H-indol-3-yl)ethyl]acetamide] |
| 7.94 | COCC(CNC(C)=O)c1cccc2ccc(OC)cc12 (stereo not shown) [S73893, N-[3-methoxy-2-(7-methoxy-1-naphthyl)propyl]acetamide] |

molecular target: T3, X. laevis Mel1c receptor (Xenopus laevis, UniProt P49219); experiment: 2-[125I]-iodomelatonin competition binding, transiently transfected COS7 cells, Xenopus Mel1c; details: COS7 cells transiently transfected with Mel1c gene; radioligand 2-[125I]-iodomelatonin; two transfections, triplicate
T3 construct: expressed in transfected cells; host or cells: COS7 (transient nucleofection, pCIneo vector)
T3 sequence (P49219 1-354 isoform P49219-2): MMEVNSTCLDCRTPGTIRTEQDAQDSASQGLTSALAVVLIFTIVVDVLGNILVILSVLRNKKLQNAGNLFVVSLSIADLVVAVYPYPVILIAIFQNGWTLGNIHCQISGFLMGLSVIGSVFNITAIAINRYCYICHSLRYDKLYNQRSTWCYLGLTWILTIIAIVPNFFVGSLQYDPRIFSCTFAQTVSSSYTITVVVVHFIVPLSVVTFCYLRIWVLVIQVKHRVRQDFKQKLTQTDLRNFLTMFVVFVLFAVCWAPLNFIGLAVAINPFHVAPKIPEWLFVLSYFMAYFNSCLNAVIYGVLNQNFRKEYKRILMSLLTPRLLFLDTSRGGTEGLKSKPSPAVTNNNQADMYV
Procedure: as §4, §3, §5

| Compound | pKi Xenopus laevis |
| --- | --- |
| COc1ccc2[nH]c(-c3cccc4ccccc34)c(CCNC(=O)CI)c2n1 [S70254] | 6.8 |
| COc1ccc2[nH]c(I)c(CCNC(C)=O)c2c1 [2-Iodomelatonin, 2-iodomelatonin] | 10.0 |

molecular target: T4, Xenopus Mel1C (Xenopus laevis, UniProt P49219); experiment: 2-[125I]-iodomelatonin competition binding, membranes from stably transfected CHO cells, Xenopus Mel1c; details: radioligand 2-[125I]-iodomelatonin
T4 construct: expressed in transfected cells
T4 sequence (P49219 1-420): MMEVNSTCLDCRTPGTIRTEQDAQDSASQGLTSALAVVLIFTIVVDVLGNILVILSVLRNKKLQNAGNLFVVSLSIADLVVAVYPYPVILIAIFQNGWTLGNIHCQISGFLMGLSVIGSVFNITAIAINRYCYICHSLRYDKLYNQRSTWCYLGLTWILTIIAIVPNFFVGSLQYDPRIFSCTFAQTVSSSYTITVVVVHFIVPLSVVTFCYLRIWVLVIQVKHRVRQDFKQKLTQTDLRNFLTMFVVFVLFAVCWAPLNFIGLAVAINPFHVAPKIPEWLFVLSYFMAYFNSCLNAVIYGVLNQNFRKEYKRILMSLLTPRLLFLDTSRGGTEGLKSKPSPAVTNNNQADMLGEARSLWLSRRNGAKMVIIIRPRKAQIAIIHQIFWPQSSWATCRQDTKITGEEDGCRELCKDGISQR
Procedure: as §1, §2, §3

| Ki [nM] | Compound | pKi |
| --- | --- | --- |
| – | COc1ccc2[nH]c(-c3cccc4ccccc34)c(CCNC(=O)CI)c2n1 [S70254] | 6.3 |
| 7.94 | COc1cc2c(CCNC(C)=O)c[nH]c2cc1I [6-Iodomelatonin, N-[2-(6-iodo-5-methoxy-1H-indol-3-yl)ethyl]acetamide] | – |
| 39.8 | COCC(CNC(C)=O)c1cccc2ccc(OC)cc12 (stereo not shown) [S73893, N-[3-methoxy-2-(7-methoxy-1-naphthyl)propyl]acetamide] | – |

| Compound | Ki [nM] | pKi |
| --- | --- | --- |
| COc1ccc2[nH]cc(CCNC(=O)CI)c2c1 [SD6, N-[2-(5-methoxy-1H-indol-3-yl)ethyl]iodoacetamide] | 0.501 | – |

molecular target: hMT1 (Homo sapiens, UniProt P48039); experiment: 2-[125I]-iodomelatonin competition binding, human MT1; set-up: hMT1: unit not given here; details: membranes from stably transfected CHO cells; radioligand 2-[125I]-iodomelatonin
Procedure: as §3

Chain of hMT1 (P48039 whole entry): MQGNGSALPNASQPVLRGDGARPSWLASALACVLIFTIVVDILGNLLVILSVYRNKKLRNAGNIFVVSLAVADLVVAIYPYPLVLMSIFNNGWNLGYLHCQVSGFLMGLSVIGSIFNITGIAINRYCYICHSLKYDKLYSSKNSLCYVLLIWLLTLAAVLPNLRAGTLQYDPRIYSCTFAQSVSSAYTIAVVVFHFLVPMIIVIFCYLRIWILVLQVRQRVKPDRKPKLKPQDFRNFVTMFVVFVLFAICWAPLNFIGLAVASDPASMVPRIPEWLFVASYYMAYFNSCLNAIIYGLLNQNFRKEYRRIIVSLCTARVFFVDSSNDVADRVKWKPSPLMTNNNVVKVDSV

| Compound | hMT1 |
| --- | --- |
| COc1ccc2[nH]c(-c3cccc4ccccc34)c(CCNC(=O)CI)c2n1 [S70254] | 7.0 |

same assay, conditions: membranes from stably transfected CHO cells; radioligand 2-[125I]-iodomelatonin; read-out: hMT1 (converted)

| Ki [nM] | Compound |
| --- | --- |
| 1.58 | COc1cc2c(CCNC(C)=O)c[nH]c2cc1I [6-Iodomelatonin, N-[2-(6-iodo-5-methoxy-1H-indol-3-yl)ethyl]acetamide] |
| 3.98 | COCC(CNC(C)=O)c1cccc2ccc(OC)cc12 (stereo not shown) [S73893, N-[3-methoxy-2-(7-methoxy-1-naphthyl)propyl]acetamide] |

molecular target: T5, G. gallus Mel1c receptor (Gallus gallus, UniProt P49288); experiment: 2-[125I]-iodomelatonin competition binding, transiently transfected COS7 cells, chicken Mel1c; details: COS7 cells transiently transfected with Mel1c gene; radioligand 2-[125I]-iodomelatonin; two transfections, triplicate
T5 construct: expressed in transfected cells; host or cells: COS7 (transient nucleofection, pCIneo vector)
T5 sequence (P49288 1-346): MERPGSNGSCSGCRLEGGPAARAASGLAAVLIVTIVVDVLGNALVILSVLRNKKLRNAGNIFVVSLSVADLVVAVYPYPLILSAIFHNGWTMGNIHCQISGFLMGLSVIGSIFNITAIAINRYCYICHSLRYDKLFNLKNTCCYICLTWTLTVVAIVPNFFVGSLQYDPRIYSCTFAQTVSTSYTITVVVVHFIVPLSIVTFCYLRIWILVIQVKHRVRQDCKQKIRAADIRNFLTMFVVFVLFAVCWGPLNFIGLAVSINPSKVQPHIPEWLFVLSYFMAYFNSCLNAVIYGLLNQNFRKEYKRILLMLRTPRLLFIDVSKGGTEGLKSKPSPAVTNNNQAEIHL
Procedure: as §4, §3, §5

| Compound | pKi Gallus gallus |
| --- | --- |
| COc1ccc2[nH]c(-c3cccc4ccccc34)c(CCNC(=O)CI)c2n1 [S70254] | 6.6 |
| COc1ccc2[nH]c(I)c(CCNC(C)=O)c2c1 [2-Iodomelatonin, 2-iodomelatonin] | 9.8 |
